# PubChem BioAssay (NCI)
# Several values for one entry are separate records, joined by “and”; a condition that tells them apart may be missing. Equal values may be shown once.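 Tested at 5 concentrations; 48 h exposure; 96-well plates; endpoints linearly interpolated, else capped at highest concentration. Here, GI50 denotes the concentration required for 50% inhibition of growth. TGI is the concentration that stops growth completely.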
# How the values were obtained:
# Assay in all cases: NCI-60 cell line screen, 48 h
# [1] = tested on: NCI-H460 lung
# [2] = tested on: UACC-62 melanoma
# [3] = tested on: HCT-15 colon
# [4] = tested on: COLO 205 colon
# [5] = tested on: CCRF-CEM leukemia
# [6] = tested on: OVCAR-5 ovarian
# [7] = tested on: A498 renal
# [8] = tested on: NCI-H23 lung
# [9] = tested on: HCC-2998 colon
compound,measurement,setting,value
O=C1C=CC=CC2CC=C[C@@H](O)C12 (stereo not given in full),TGI,[1],38 µM
same,TGI,[2],38.5 µM
same,TGI,[3],35.2 µM
same,TGI,[4],39.5 µM
same,TGI,[5],> 100 µM
same,TGI,[6],63 µM
same,TGI,[7],38.2 µM
Cc1ccc(S(=O)(=O)NCCNC2=CC(=O)c3nc4ccccc4c4ccnc2c34)cc1,GI50,[1],15.7 µM
same,TGI,[1],56.5 µM
same,GI50,[2],20.6 µM
same,TGI,[2],44.5 µM
same,GI50,[8],20.1 µM
same,TGI,[8],49.5 µM
same,GI50,[3],16.2 µM
same,TGI,[3],48.1 µM
same,GI50,[4],14.3 µM
same,TGI,[4],52.2 µM
same,GI50,[6],25 µM
same,TGI,[6],65.4 µM
same,GI50,[7],24.1 µM
same,TGI,[7],53.1 µM
CCOC(=O)C1=C(c2ccccc2)N(C)c2ccccc2S1,TGI,[1],63.6 µM
same,TGI,[2],53.2 µM
same,TGI,[8],60.4 µM
same,TGI,[3],31.3 µM
same,TGI,[4],> 100 µM
same,TGI,[5],> 100 µM
same,TGI,[6],> 100 µM
CSC(CC(=O)O)C(=O)O (stereo not given),TGI,[1],> 100 µM
same,TGI,[2],> 100 µM
same,TGI,[8],> 100 µM
same,TGI,[3],> 100 µM
same,TGI,[4],> 100 µM
same,TGI,[5],> 100 µM
same,TGI,[6],> 100 µM
same,TGI,[9],> 100 µM
same,TGI,[7],> 100 µM
O=C([CH-]C(=O)c1ccccc1)c1ccccc1.O=C([CH-]C(=O)c1ccccc1)c1ccccc1.O=C([CH-]C(=O)c1ccccc1)c1ccccc1.[Nd+3].[OH3+],GI50,[1],3.41 µM
same,TGI,[1],> 100 µM
same,GI50,[2],4.3 µM
same,TGI,[2],19.2 µM
same,GI50,[8],2.97 µM
same,TGI,[8],13.3 µM
same,GI50,[3],8.7 µM
same,TGI,[3],53.6 µM
same,GI50,[4],10.6 µM
same,TGI,[4],25.6 µM
same,GI50,[6],39.5 µM
same,TGI,[6],> 100 µM
same,GI50,[9],4.73 µM
same,TGI,[9],19 µM
same,GI50,[7],9 µM
same,TGI,[7],27.3 µM
COc1cc(/C=C2\CCC/C(=C\c3cc(OC)c(O)c(OC)c3)C2=O)cc(OC)c1O,TGI,[1],10.7 µM
same,TGI,[2],5.2 µM
same,TGI,[8],3.5 µM and 4.19 µM
same,TGI,[3],3.45 µM
same,TGI,[4],73.8 µM and 32.8 µM
same,TGI,[5],17.8 µM
same,GI50,[6],5.22 µM
same,TGI,[6],7.4 µM and 63.3 µM
same,GI50,[7],2.18 µM
same,TGI,[7],3.21 µM and 4.81 µM
COc1ccc(-c2nc3sc(-c4ccc(Cl)cc4)cn3n2)cc1,GI50,[1],1.33 µM
same,TGI,[1],4 µM
same,GI50,[2],8.24 µM
same,TGI,[2],> 50 µM
same,GI50,[8],6.66 µM
same,TGI,[8],> 50 µM
same,GI50,[3],24.5 µM
same,TGI,[3],> 50 µM
same,GI50,[4],2.65 µM
same,TGI,[4],> 50 µM
same,GI50,[5],> 50 µM
same,TGI,[5],> 50 µM
same,GI50,[6],2.78 µM
same,TGI,[6],> 50 µM
same,GI50,[9],> 50 µM
same,TGI,[9],> 50 µM
NCCCOCC(=O)O,TGI,[2],> 100 µM
same,TGI,[8],> 100 µM
same,TGI,[3],> 100 µM
same,TGI,[4],> 100 µM
same,TGI,[6],> 100 µM
same,TGI,[9],> 100 µM
CC1CCP(=O)(c2ccccc2)c2ccccc21 (stereo not given),TGI,[1],80.3 µM
same,TGI,[2],> 100 µM
same,TGI,[8],> 100 µM
same,TGI,[3],> 100 µM
same,TGI,[4],> 100 µM
same,TGI,[5],> 100 µM
same,TGI,[6],> 100 µM
same,TGI,[9],> 100 µM
same,TGI,[7],> 100 µM
O=C(Nc1cccs1)c1c(O)[nH]c(=S)[nH]c1=O,TGI,[1],> 100 µM
same,TGI,[2],> 100 µM
same,TGI,[8],> 100 µM
same,TGI,[3],> 100 µM
same,TGI,[4],> 100 µM
same,TGI,[5],> 100 µM
same,TGI,[6],> 100 µM
same,TGI,[7],> 100 µM
C/C(=N\O)c1cccc(Nc2cc(-n3ccnn3)c3ccccc3n2)c1,GI50,[1],48.9 µM
same,TGI,[1],> 100 µM
same,GI50,[2],12.8 µM
same,TGI,[2],25.4 µM
same,GI50,[8],21.3 µM
same,TGI,[8],48.6 µM
same,GI50,[3],13.5 µM
same,TGI,[3],27.4 µM
same,GI50,[4],22.2 µM
same,TGI,[4],59 µM
same,GI50,[5],11.7 µM
same,TGI,[5],31.3 µM
same,GI50,[6],24.4 µM
same,TGI,[6],> 100 µM
same,GI50,[9],20.5 µM
same,TGI,[9],56.5 µM
same,GI50,[7],15.2 µM
same,TGI,[7],38.3 µM
CCC(=O)O[C@H]1CC[C@H]2[C@@H]3CC[C@H]4CC(=O)[C@H](C)C[C@]4(C)[C@H]3CC[C@]12C,GI50,[1],13 µM
same,TGI,[1],97.4 µM
same,GI50,[2],13.9 µM
same,TGI,[2],> 100 µM
same,GI50,[8],43.6 µM
same,TGI,[8],> 100 µM
same,GI50,[3],37.7 µM
same,TGI,[3],> 100 µM
same,GI50,[4],28.3 µM
same,TGI,[4],> 100 µM
same,GI50,[5],18.8 µM
same,TGI,[5],> 100 µM
same,GI50,[6],74.8 µM
same,TGI,[6],> 100 µM
same,GI50,[9],49.7 µM
same,TGI,[9],> 100 µM
same,GI50,[7],28 µM
same,TGI,[7],> 100 µM
O=C1C(c2c[nH]c3ccccc23)=C(c2c[nH]c3ccccc23)C(=O)N1O,GI50,[1],> 25 µM
same,TGI,[1],> 25 µM
same,GI50,[2],24.6 µM
same,TGI,[2],> 25 µM
same,GI50,[8],> 25 µM
same,TGI,[8],> 25 µM
same,GI50,[3],> 25 µM
same,TGI,[3],> 25 µM
same,GI50,[4],> 25 µM
same,TGI,[4],> 25 µM
same,GI50,[5],> 25 µM
same,TGI,[5],> 25 µM
same,GI50,[6],> 25 µM
same,TGI,[6],> 25 µM
same,GI50,[9],> 25 µM
same,TGI,[9],> 25 µM
same,GI50,[7],8.1 µM
same,TGI,[7],> 25 µM
O=C(Nc1ccc(F)cc1)c1ccc(NC2=C(Cl)C(=O)N(Cc3ccccc3)C2=O)cc1,GI50,[1],7.32 µM
same,TGI,[1],> 100 µM
same,GI50,[2],18.1 µM
same,TGI,[2],38.5 µM
same,GI50,[8],31.5 µM
same,TGI,[8],84.4 µM
same,GI50,[3],13.3 µM
same,TGI,[3],49.4 µM
same,GI50,[4],22.1 µM
same,TGI,[4],> 100 µM
same,GI50,[6],9.15 µM
same,TGI,[6],27.1 µM
same,GI50,[9],11 µM
same,TGI,[9],> 100 µM
same,GI50,[7],13.6 µM
same,TGI,[7],31.9 µM
O=Nc1c(-c2c(O)[nH]c3ccc([N+](=O)[O-])cc23)[nH]c2ccc(O)cc12,GI50,[1],0.32 µM
same,GI50,[2],0.211 µM
same,TGI,[2],0.439 µM
same,GI50,[8],0.549 µM
same,TGI,[8],> 49.5 µM
same,GI50,[3],0.376 µM
same,TGI,[3],> 100 µM
same,GI50,[4],5.92 µM
same,TGI,[4],40.5 µM
same,GI50,[5],0.11 µM
same,TGI,[5],12.2 µM
same,GI50,[6],1.65 µM
same,TGI,[6],51.1 µM
same,GI50,[9],0.836 µM
same,TGI,[9],> 100 µM
same,GI50,[7],0.218 µM
same,TGI,[7],1.24 µM
COC(=O)C1C(O)CC(c2ccccn2)N(Cc2ccccc2)C1c1ccccn1 (stereo not given),TGI,[1],> 100 µM
same,TGI,[2],> 100 µM
same,TGI,[8],> 100 µM
same,TGI,[3],> 100 µM
same,TGI,[4],> 100 µM
same,TGI,[5],> 100 µM
same,TGI,[6],> 100 µM
same,TGI,[9],> 100 µM
same,TGI,[7],> 100 µM
OC1c2ccccc2C2(O)C1C(c1ccccc1)C(c1ccccc1)C2(O)c1ccccc1 (stereo not given),TGI,[1],19.5 µM
same,TGI,[2],28.4 µM
same,TGI,[8],41.7 µM
same,TGI,[3],22.2 µM
same,TGI,[4],30.7 µM
same,TGI,[5],> 100 µM
same,TGI,[6],26.7 µM
same,TGI,[9],28.6 µM
COc1ccc(-c2oc3c(OC)c(OC)c(OC)c(O)c3c(=O)c2OC)cc1OC,TGI,[1],> 83.7 µM
same,TGI,[2],> 92 µM
same,TGI,[8],> 83.8 µM
same,TGI,[3],> 100 µM
same,TGI,[4],> 73.1 µM
same,TGI,[5],> 71.3 µM
same,TGI,[6],> 100 µM
same,TGI,[9],> 67 µM
same,TGI,[7],> 64.8 µM
